From PubChem BioAssay (NCI)
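A five-concentration, 48-hour dose response in 96-well plates underlies each endpoint, interpolated linearly between surrounding concentrations. GI50: concentration for 50% inhibition of growth. At the TGI there is no net growth.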

Assays:
Assay in all cases: NCI-60 cell line screen, 48 h
HCT-116 colon = test system: HCT-116 colon
HOP-92 NSCLC = test system: HOP-92 NSCLC
786-0 renal = test system: 786-0 renal
RXF 393 renal = test system: RXF 393 renal
T-47D breast = test system: T-47D breast
OVCAR-3 ovarian = test system: OVCAR-3 ovarian
NCI-H522 lung = test system: NCI-H522 lung
HT29 colon = test system: HT29 colon
HCT-15 colon = test system: HCT-15 colon
HL-60(TB) leukemia = test system: HL-60(TB) leukemia
DU-145 prostate = test system: DU-145 prostate
K-562 leukemia = test system: K-562 leukemia
NCI-H23 lung = test system: NCI-H23 lung
CCRF-CEM leukemia = test system: CCRF-CEM leukemia
HS 578T breast = test system: HS 578T breast
UACC-257 melanoma = test system: UACC-257 melanoma
SR leukemia = test system: SR leukemia
BT-549 breast = test system: BT-549 breast
SNB-19 CNS = test system: SNB-19 CNS
KM12 colon = test system: KM12 colon
UO-31 renal = test system: UO-31 renal
SK-OV-3 ovarian = test system: SK-OV-3 ovarian
SF-539 CNS = test system: SF-539 CNS
PC-3 prostate = test system: PC-3 prostate
ACHN renal = test system: ACHN renal
SF-268 CNS = test system: SF-268 CNS
IGROV1 ovarian = test system: IGROV1 ovarian
SK-MEL-28 melanoma = test system: SK-MEL-28 melanoma
RPMI-8226 leukemia = test system: RPMI-8226 leukemia
OVCAR-5 ovarian = test system: OVCAR-5 ovarian
TK-10 renal = test system: TK-10 renal
A549 NSCLC = test system: A549 NSCLC
NCI/ADR-RES ovarian = test system: NCI/ADR-RES ovarian
OVCAR-4 ovarian = test system: OVCAR-4 ovarian
OVCAR-8 ovarian = test system: OVCAR-8 ovarian
EKVX NSCLC = test system: EKVX NSCLC
MDA-MB-435 = test system: MDA-MB-435
U251 CNS = test system: U251 CNS
LOX IMVI melanoma = test system: LOX IMVI melanoma
NCI-H226 lung = test system: NCI-H226 lung
SNB-75 CNS = test system: SNB-75 CNS
SW-620 colon = test system: SW-620 colon
COLO 205 colon = test system: COLO 205 colon
UACC-62 melanoma = test system: UACC-62 melanoma
CAKI-1 renal = test system: CAKI-1 renal
MALME-3M melanoma = test system: MALME-3M melanoma
MOLT-4 leukemia = test system: MOLT-4 leukemia
HOP-62 NSCLC = test system: HOP-62 NSCLC
SN12C renal = test system: SN12C renal
MDA-MB-231 breast = test system: MDA-MB-231 breast
NCI-H460 lung = test system: NCI-H460 lung
HCC-2998 colon = test system: HCC-2998 colon
MCF7 breast = test system: MCF7 breast
M14 melanoma = test system: M14 melanoma
SK-MEL-2 melanoma = test system: SK-MEL-2 melanoma
SK-MEL-5 melanoma = test system: SK-MEL-5 melanoma
SF-295 CNS = test system: SF-295 CNS
A498 renal = test system: A498 renal

## CC1=C2C(=C[C@@](C)(C=O)[C@@H]2O)C(=O)[C@](C)(O)C12CC2
HCT-116 colon
  GI50: 0.569 µM
  TGI: > 100 µM
HOP-92 NSCLC
  GI50: 2.39 µM
  TGI: 6.68 µM
786-0 renal
  GI50: 2.4 µM
  TGI: 10.1 µM
RXF 393 renal
  GI50: 0.277 µM
  TGI: 0.799 µM
T-47D breast
  GI50: 2.39 µM
  TGI: 8.86 µM
OVCAR-3 ovarian
  GI50: 1.35 µM
  TGI: 5.77 µM
NCI-H522 lung
  GI50: 1.79 µM
  TGI: 4.94 µM
HT29 colon
  GI50: 1.13 µM
  TGI: 88 µM
HCT-15 colon
  GI50: 0.842 µM
  TGI: 9.1 µM
HL-60(TB) leukemia
  GI50: 1.47 µM
  TGI: 6.97 µM
DU-145 prostate
  GI50: 0.34 µM
  TGI: 10.1 µM
K-562 leukemia
  GI50: 2.91 µM
  TGI: > 100 µM
NCI-H23 lung
  GI50: 0.666 µM
  TGI: 2.45 µM
CCRF-CEM leukemia
  GI50: 1.74 µM
  TGI: > 100 µM
HS 578T breast
  GI50: 1.99 µM
  TGI: 5.36 µM
UACC-257 melanoma
  GI50: 3.15 µM
  TGI: 15.2 µM
SR leukemia
  GI50: 2.16 µM
  TGI: > 100 µM
BT-549 breast
  GI50: 1.59 µM
  TGI: 4.73 µM
SNB-19 CNS
  GI50: 2.5 µM
  TGI: 12.5 µM
KM12 colon
  GI50: 3.09 µM
  TGI: 22.2 µM
UO-31 renal
  GI50: 1.7 µM
  TGI: 9.01 µM
SK-OV-3 ovarian
  GI50: 2.66 µM
  TGI: 7.79 µM
SF-539 CNS
  GI50: 1.48 µM
  TGI: 3.33 µM
PC-3 prostate
  GI50: 1.55 µM
  TGI: 8.26 µM
ACHN renal
  GI50: 1.56 µM
  TGI: 8.2 µM
SF-268 CNS
  GI50: 2.59 µM
  TGI: 10.3 µM
IGROV1 ovarian
  GI50: 0.789 µM
  TGI: 5.76 µM
SK-MEL-28 melanoma
  GI50: 1.96 µM
  TGI: 5.03 µM
RPMI-8226 leukemia
  GI50: 7.28 µM
  TGI: 52.2 µM
OVCAR-5 ovarian
  GI50: 0.424 µM
  TGI: 4.44 µM
TK-10 renal
  GI50: 2.7 µM
  TGI: 8.77 µM
A549 NSCLC
  GI50: 0.476 µM
  TGI: 11.9 µM
NCI/ADR-RES ovarian
  GI50: 1.56 µM
  TGI: 5.7 µM
OVCAR-4 ovarian
  GI50: 2.04 µM
  TGI: 7.07 µM
OVCAR-8 ovarian
  GI50: 2.39 µM
  TGI: > 100 µM
EKVX NSCLC
  GI50: 2.8 µM
  TGI: 8.86 µM
MDA-MB-435
  GI50: 2.07 µM
  TGI: 4.72 µM
U251 CNS
  GI50: 1.05 µM
  TGI: > 100 µM
LOX IMVI melanoma
  GI50: 1.16 µM
  TGI: 4.43 µM
NCI-H226 lung
  GI50: 2.07 µM
  TGI: 5.09 µM
SNB-75 CNS
  GI50: 1.58 µM
  TGI: 3.95 µM
SW-620 colon
  GI50: 0.881 µM
  TGI: > 100 µM
COLO 205 colon
  GI50: 1.12 µM
  TGI: 4.68 µM
UACC-62 melanoma
  GI50: 1.52 µM
  TGI: 3.67 µM
CAKI-1 renal
  GI50: 0.541 µM
  TGI: 22 µM
MALME-3M melanoma
  GI50: 1.61 µM
  TGI: 3.83 µM
MOLT-4 leukemia
  GI50: 2.18 µM
  TGI: > 100 µM
HOP-62 NSCLC
  GI50: 2.53 µM
  TGI: 14.1 µM
SN12C renal
  GI50: 2.85 µM
  TGI: 51.5 µM
MDA-MB-231 breast
  GI50: 2.49 µM
  TGI: 7.55 µM
NCI-H460 lung
  GI50: 0.26 µM
  TGI: 0.71 µM
HCC-2998 colon
  GI50: 1.38 µM
  TGI: 3.48 µM
MCF7 breast
  GI50: 0.381 µM
  TGI: 10.5 µM
M14 melanoma
  GI50: 1.78 µM
  TGI: 5.11 µM
SK-MEL-2 melanoma
  GI50: 2.08 µM
  TGI: 4.58 µM

## C#C[C@]1(O)CC[C@H]2[C@@H]3CC=C4c5sc(Nc6cccc(C)n6)nc5CC[C@]4(C)[C@H]3CC[C@@]21C
HCT-116 colon
  GI50: 1.35 µM
  TGI: 3.04 µM
HOP-92 NSCLC
  GI50: 1.59 µM
  TGI: 4.15 µM
786-0 renal
  GI50: 0.437 µM
  TGI: 1.96 µM
RXF 393 renal
  GI50: 0.23 µM
  TGI: 0.579 µM
T-47D breast
  GI50: 1.98 µM
  TGI: 6.64 µM
NCI-H522 lung
  GI50: 1.66 µM
  TGI: 3.26 µM
HT29 colon
  GI50: 1.5 µM
  TGI: 3.17 µM
HCT-15 colon
  GI50: 1.13 µM
  TGI: 2.71 µM
HL-60(TB) leukemia
  GI50: 0.71 µM
  TGI: 3.46 µM
DU-145 prostate
  GI50: 2.8 µM
  TGI: 12 µM
K-562 leukemia
  GI50: 0.666 µM
  TGI: 3.1 µM
NCI-H23 lung
  GI50: 1.57 µM
  TGI: 6.03 µM
CCRF-CEM leukemia
  GI50: 1.36 µM
  TGI: 6.35 µM
HS 578T breast
  GI50: 0.343 µM
  TGI: 2.02 µM
SK-MEL-5 melanoma
  GI50: 1.84 µM
  TGI: 3.7 µM
UACC-257 melanoma
  GI50: 1.62 µM
  TGI: 3.46 µM
SR leukemia
  GI50: 0.403 µM
  TGI: 2.09 µM
BT-549 breast
  GI50: 1.49 µM
  TGI: 3.31 µM
SNB-19 CNS
  GI50: 1.2 µM
  TGI: 3.82 µM
KM12 colon
  GI50: 1.85 µM
  TGI: 5.99 µM
UO-31 renal
  GI50: 1.14 µM
  TGI: 2.56 µM
SF-295 CNS
  GI50: 0.329 µM
  TGI: 1.36 µM
SK-OV-3 ovarian
  GI50: 1.37 µM
  TGI: 3.25 µM
SF-539 CNS
  GI50: 0.28 µM
  TGI: 1.17 µM
A498 renal
  GI50: 1.28 µM
  TGI: 2.62 µM
PC-3 prostate
  GI50: 0.979 µM
  TGI: 5.54 µM
ACHN renal
  GI50: 1.2 µM
  TGI: 3.55 µM
SF-268 CNS
  GI50: 2.02 µM
  TGI: 7.37 µM
IGROV1 ovarian
  GI50: 2.74 µM
  TGI: 11.5 µM
SK-MEL-28 melanoma
  GI50: 0.543 µM
  TGI: 2.28 µM
OVCAR-5 ovarian
  GI50: 1.7 µM
  TGI: 3.78 µM
TK-10 renal
  GI50: 2.46 µM
  TGI: 7.67 µM
A549 NSCLC
  GI50: 1.89 µM
  TGI: 8.31 µM
NCI/ADR-RES ovarian
  GI50: 1.82 µM
  TGI: 7.41 µM
OVCAR-4 ovarian
  GI50: 3.02 µM
  TGI: 16.8 µM
OVCAR-8 ovarian
  GI50: 1.45 µM
  TGI: 4.78 µM
EKVX NSCLC
  GI50: 1.39 µM
  TGI: 10.1 µM
MDA-MB-435
  GI50: 2.24 µM
  TGI: 6.44 µM
U251 CNS
  GI50: 0.558 µM
  TGI: 1.93 µM
LOX IMVI melanoma
  GI50: 1.39 µM
  TGI: 2.79 µM
NCI-H226 lung
  GI50: 2.69 µM
  TGI: 12.1 µM
SNB-75 CNS
  GI50: 1.09 µM
  TGI: 8.32 µM
SW-620 colon
  GI50: 1.56 µM
  TGI: 3.09 µM
COLO 205 colon
  GI50: 1.76 µM
  TGI: 3.38 µM
UACC-62 melanoma
  GI50: 1.49 µM
  TGI: 3.3 µM
CAKI-1 renal
  GI50: 1.53 µM
  TGI: 4.34 µM
MALME-3M melanoma
  GI50: 1.4 µM
  TGI: 3.36 µM
MOLT-4 leukemia
  GI50: 0.552 µM
  TGI: 3.05 µM
HOP-62 NSCLC
  GI50: 1.33 µM
  TGI: 2.93 µM
SN12C renal
  GI50: 1.62 µM
  TGI: 3.2 µM
MDA-MB-231 breast
  GI50: 1.24 µM
  TGI: 3.38 µM
NCI-H460 lung
  GI50: 1.46 µM
  TGI: 3.04 µM
HCC-2998 colon
  GI50: 2.19 µM
  TGI: 5.52 µM
MCF7 breast
  GI50: 1.24 µM
  TGI: 3.52 µM
M14 melanoma
  GI50: 1.52 µM
  TGI: 3.57 µM
